# Test results: ChEMBL document CHEMBL3272271, “Folate antagonists. 13. 2,4-Diamino-6-](alpha,alpha,alpha-trifluoro-m-tolyl)thio]quinazoline and related 2,4-diamino-6-[(phenyl- and naphthyl)thio]quinazolines, a unique class of antimetabolites with extraordinary antimalarial and antibacterial effects” (J Med Chem, 1978)
# Activity calls are given as the source filed them. The rule behind the calls is not given here.
# How the values were obtained:
# [1] = system: Plasmodium berghei; experiment: Antimalarial activity against Plasmodium berghei infected in mouse assessed as disease cure from parasite infection at 10 mg/kg, sc administered 72 hrs after infection; assay type: functional, organism-based; parameters: dose 10 mg/kg
# [2] = system: Plasmodium berghei; experiment: Antimalarial activity against Plasmodium berghei infected in mouse assessed as increase in mean survival days of host at 1.25 mg/kg, sc administered 72 hrs after infection relative to control; assay type: functional; details: route subcutaneous
# [3] = system: Plasmodium berghei; experiment: Antimalarial activity against Plasmodium berghei infected in mouse assessed as disease cure from parasite infection at 320 mg/kg, sc administered 72 hrs after infection; assay type: functional, organism-based; parameters: dose 320 mg/kg
# [4] = system: Plasmodium berghei; experiment: Antimalarial activity against Plasmodium berghei infected in mouse assessed as disease cure from parasite infection at 640 mg/kg, sc administered 72 hrs after infection; assay type: functional, organism-based; parameters: dose 640 mg/kg
# [5] = system: Plasmodium berghei; experiment: Antimalarial activity against Plasmodium berghei infected in mouse assessed as disease cure from parasite infection at 20 mg/kg, sc administered 72 hrs after infection; assay type: functional, organism-based; parameters: dose 20 mg/kg
# [6] = system: Plasmodium berghei; experiment: Antimalarial activity against Plasmodium berghei infected in mouse assessed as increase in mean survival days of host at 10 mg/kg, sc administered 72 hrs after infection relative to control; assay type: functional; details: route subcutaneous
# [7] = system: Plasmodium berghei; experiment: Antimalarial activity against cycloguanil-resistant Plasmodium berghei assessed as drug resistance; assay type: functional, organism-based
# [8] = system: Plasmodium berghei; experiment: Antimalarial activity against Plasmodium berghei infected in mouse assessed as increase in mean survival days of host at 5 mg/kg, sc administered 72 hrs after infection relative to control; assay type: functional; details: route subcutaneous
# [9] = system: Plasmodium berghei; experiment: Antimalarial activity against chloroquine-resistant Plasmodium berghei assessed as drug resistance; assay type: functional, organism-based
# [10] = system: Plasmodium berghei; experiment: Antimalarial activity against Plasmodium berghei infected in mouse assessed as disease cure from parasite infection at 80 mg/kg, sc administered 72 hrs after infection; assay type: functional, organism-based; parameters: dose 80 mg/kg
# [11] = system: Plasmodium berghei; experiment: Antimalarial activity against Plasmodium berghei infected in mouse assessed as increase in mean survival days of host at 20 mg/kg, sc administered 72 hrs after infection relative to control; assay type: functional; details: route subcutaneous
# [12] = system: Plasmodium berghei; experiment: Antimalarial activity against Plasmodium berghei infected in mouse assessed as disease cure from parasite infection at 40 mg/kg, sc administered 72 hrs after infection; assay type: functional, organism-based; parameters: dose 40 mg/kg
# [13] = system: Plasmodium berghei; experiment: Antimalarial activity against Plasmodium berghei infected in mouse assessed as increase in mean survival days of host at 2.5 mg/kg, sc administered 72 hrs after infection relative to control; assay type: functional; details: route subcutaneous
# [14] = system: Plasmodium gallinaceum; experiment: Antimalarial activity against trophozoite-induced Plasmodium gallinaceum infected in white leghorn chicken assessed as disease cure from parasite infection at 100 mg/kg, sc administered 72 hrs after infection; assay type: functional, organism-based; parameters: dose 100 mg/kg
# [15] = system: Plasmodium berghei; experiment: Antimalarial activity against Plasmodium berghei infected in mouse assessed as disease cure from parasite infection at 160 mg/kg, sc administered 72 hrs after infection; assay type: functional, organism-based; parameters: dose 160 mg/kg
# [16] = system: Plasmodium gallinaceum; experiment: Antimalarial activity against trophozoite-induced Plasmodium gallinaceum infected in white leghorn chicken assessed as increase in mean survival days of host at 100 mg/kg, sc administered 72 hrs after infection relative to control; assay type: functional; details: route subcutaneous
# [17] = system: Plasmodium gallinaceum; experiment: Antimalarial activity against trophozoite-induced Plasmodium gallinaceum infected in white leghorn chicken assessed as disease cure from parasite infection at 320 mg/kg, sc administered 72 hrs after infection; assay type: functional, organism-based; parameters: dose 320 mg/kg
# [18] = system: Plasmodium falciparum; experiment: Antimalarial activity against pyrimethamine-sensitive Plasmodium falciparum Vietnam Oak Knoll infected in Aotus trivirgatus owl monkey model assessed as cure from parasite infection at 0.098 to 1.56 mg/kg, po qd for 7 days relative to control; assay type: functional; details: dose mg/kg 0.098-1.56
# [19] = system: Plasmodium falciparum; experiment: Antimalarial activity against pyrimethamine-sensitive Plasmodium falciparum Vietnam Oak Knoll infected in Aotus trivirgatus owl monkey model assessed as cure from parasite infection at 0.6 mg/kg, po qd for 7 days relative to control; assay type: functional
# [20] = system: Plasmodium gallinaceum; experiment: Antimalarial activity against sporozoite-induced Plasmodium gallinaceum infected in white leghorn chicken assessed as disease cure from parasite infection at 320 mg/kg, sc administered 72 hrs after infection; assay type: functional, organism-based; parameters: dose 320 mg/kg
# [21] = system: Plasmodium berghei; experiment: Ratio of quinine hydrochloride SD90 to compound SD90 for trophozoite-induced Plasmodium berghei infected in mouse assessed as daily dose required to suppression of 90% parasite infection administered with diet for 6 days; assay type: functional
# [22] = system: Staphylococcus aureus; experiment: Antibacterial activity against Staphylococcus aureus UC-96 by gradient plate test; assay type: functional
# [23] = system: Escherichia coli; experiment: Antibacterial activity against Escherichia coli Vogel by gradient plate test; assay type: functional
# [24] = system: Plasmodium gallinaceum; experiment: Antimalarial activity against sporozoite-induced Plasmodium gallinaceum infected in white leghorn chicken assessed as increase in mean survival days of host at 80 mg/kg, sc administered 72 hrs after infection relative to control; assay type: functional; details: route subcutaneous
# [25] = system: Plasmodium falciparum; experiment: Antimalarial activity against chloroquine-susceptible, pyrimethamine-resistant Plasmodium falciparum Malayan Camp infected in Aotus trivirgatus owl monkey model assessed as cure from parasite infection at 0.39 to 5 mg/kg, po qd for 7 days relative to control; assay type: functional; details: dose mg/kg 0.39-5
# [26] = system: Staphylococcus aureus; experiment: Antibacterial activity against drug-resistant Staphylococcus aureus S18713 by gradient plate test; assay type: functional
# [27] = system: Pseudomonas aeruginosa; experiment: Antibacterial activity against Pseudomonas aeruginosa 28 by gradient plate test; assay type: functional
# [28] = system: Plasmodium berghei; experiment: Antimalarial activity against Plasmodium berghei infected in mouse assessed as increase in mean survival days of host at 80 mg/kg, sc administered 72 hrs after infection relative to control; assay type: functional; details: route subcutaneous
# [29] = system: Plasmodium berghei; experiment: Antimalarial activity against trophozoite-induced Plasmodium berghei infected in mouse assessed as daily dose required to suppression of 90% parasite infection administered with diet for 6 days; assay type: functional
# [30] = system: Plasmodium gallinaceum; experiment: Antimalarial activity against trophozoite-induced Plasmodium gallinaceum infected in white leghorn chicken assessed as disease cure from parasite infection at 160 mg/kg, sc administered 72 hrs after infection; assay type: functional, organism-based; parameters: dose 160 mg/kg
# [31] = system: Plasmodium gallinaceum; experiment: Antimalarial activity against sporozoite-induced Plasmodium gallinaceum infected in white leghorn chicken assessed as disease cure from parasite infection at 160 mg/kg, sc administered 72 hrs after infection; assay type: functional, organism-based; parameters: dose 160 mg/kg
# [32] = system: Shigella sonnei; experiment: Antibacterial activity against Shigella sonnei C-10 by gradient plate test; assay type: functional
# [33] = system: Plasmodium falciparum; experiment: Antimalarial activity against chloroquine-susceptible, pyrimethamine-resistant Plasmodium falciparum Malayan Camp infected in Aotus trivirgatus owl monkey model assessed as cure from parasite infection at >2.5 mg/kg, po qd for 7 days relative to control; assay type: functional
# [34] = system: Enterococcus faecalis; experiment: Antibacterial activity against Streptococcus faecalis MGH-2 by gradient plate test; assay type: functional
# [35] = system: Plasmodium gallinaceum; experiment: Antimalarial activity against trophozoite-induced Plasmodium gallinaceum infected in white leghorn chicken assessed as increase in mean survival days of host at 80 mg/kg, sc administered 72 hrs after infection relative to control; assay type: functional; details: route subcutaneous
# [36] = system: Plasmodium gallinaceum; experiment: Antimalarial activity against trophozoite-induced Plasmodium gallinaceum infected in white leghorn chicken assessed as increase in mean survival days of host at 160 mg/kg, sc administered 72 hrs after infection relative to control; assay type: functional; details: route subcutaneous
# [37] = system: Plasmodium gallinaceum; experiment: Antimalarial activity against sporozoite-induced Plasmodium gallinaceum infected in white leghorn chicken assessed as increase in mean survival days of host at 320 mg/kg, sc administered 72 hrs after infection relative to control; assay type: functional; details: route subcutaneous
# [38] = system: Plasmodium gallinaceum; experiment: Antimalarial activity against sporozoite-induced Plasmodium gallinaceum infected in white leghorn chicken assessed as disease cure from parasite infection at 80 mg/kg, sc administered 72 hrs after infection; assay type: functional, organism-based; parameters: dose 80 mg/kg
# [39] = system: Plasmodium berghei; experiment: Antimalarial activity against Plasmodium berghei infected in mouse assessed as increase in mean survival days of host at 40 mg/kg, sc administered 72 hrs after infection relative to control; assay type: functional; details: route subcutaneous
smiles,measurement,setting,value
Nc1nc(N)c2cc(Sc3ccc(Cl)c(Cl)c3)ccc2n1,Activity,[1],Active
same,MST,[2],0.9 days
same,Activity,[3],Active
same,Activity,[4],Active
same,Activity,[5],Active
same,MST,[6],11.7 days
same,Activity,[7],Active
same,MST,[8],8.5 days
same,Activity,[9],inactive
same,Activity,[10],Active
same,MST,[11],15.9 days
same,Activity,[12],Active
same,MST,[13],5.9 days
same,Activity,[14],Active
same,Activity,[15],Active
same,MST,[16],20.8 days
Nc1nc(N)c2cc(Sc3ccc(Cl)cc3)ccc2n1,MST,[2],1.7 days
same,Activity,[17],Active
same,Activity,[3],Active
same,Activity,[4],Active
same,Activity,[18],>50%
same,Activity,[19],>50%
same,Activity,[20],Active
same,Ratio,[21],340
same,MIC,[22],< 0.25 µg/mL
same,MIC,[23],1 µg/mL
same,MST,[6],9.2 days
same,Activity,[7],Active
same,MST,[24],17.9 days
same,MST,[8],6 days
same,Activity,[25],>50%
same,MIC,[26],< 0.25 µg/mL
same,MIC,[27],> 25 µg/mL
same,Activity,[9],inactive
same,MST,[28],25.8 days
same,Activity,[10],Active
same,SD90,[29],0.22 mg/kg/day
same,MST,[11],9.2 days
same,Activity,[30],Active
same,Activity,[12],Active
same,MST,[13],2.5 days
same,Activity,[31],Active
same,MIC,[32],5 µg/mL
same,Activity,[33],>50%
same,Activity,[15],Active
same,MIC,[34],< 0.25 µg/mL
same,MST,[35],16.7 days
same,MST,[36],22.2 days
same,MST,[37],1.9 days
same,Activity,[38],Active
same,MST,[39],13.1 days
